Results taken from ChEMBL document CHEMBL1146067, “Free radical scavenging and antioxidant activities of substituted hexahydropyridoindoles. Quantitative structure-activity relationships” (J Med Chem, 2006).

Test system: Radical scavenging activity
Assay: Antioxidant activity in unilamellar DOPC liposomes
Type: functional, subcellular, Liposome

| Compound | Log IC50 |
| --- | --- |
| Cc1cc2c(c([N+](=O)[O-])c1)N[C@H]1CCN(C)C[C@@H]21 (racemic) | -4.58 |
| CCOC(=O)N1CC[C@@H]2Nc3cc(C)c(OC)c(C)c3[C@@H]2C1 (racemic) | -4.7 |
| COc1ccc2c(c1)[C@@H]1CN(C(=O)OC(C)(C)C)CC[C@@H]1N2 (racemic) | -5.12 |
| CCCCOC(=O)N1CC[C@@H]2Nc3cc(C)c(OC)c(C)c3[C@@H]2C1 (racemic) | -5.35 |
| COc1c(C)cc2c(c1C)[C@@H]1CN(C(=O)OCc3ccccc3)CC[C@@H]1N2 (racemic) | -5.48 |
| Cc1c(Br)cc2c(c1C)N[C@H]1CCN(C(=O)OCc3ccccc3)C[C@@H]21 (racemic) | -5.53 |
| COC(=O)N1CC[C@@H]2Nc3cc(C)c(OC)c(C)c3[C@@H]2C1 (racemic) | -4.71 |
| COc1c(C)cc2c(c1C)[C@@H]1CN(C(=O)OCC(C)C)CC[C@@H]1N2 (racemic) | -5.19 |
| CCCOC(=O)N1CC[C@@H]2Nc3cc(C)c(OC)c(C)c3[C@@H]2C1 (racemic) | -5.16 |
| CN1CC[C@@H]2Nc3ccc(O)cc3[C@@H]2C1 (racemic) | -4.68 |
| Cc1cc(N)c2c(c1)[C@@H]1CN(C)CC[C@@H]1N2 (racemic) | -4.9 |
| COc1ccc2c(c1)[C@H]1CN(C)CC[C@H]1N2 | -4.48 |
| Cc1cc(Br)c2c(c1)[C@@H]1CN(C)CC[C@@H]1N2 (racemic) | -4.8 |
| Cc1cc2c(c(N(C)C)c1)N[C@H]1CCN(C)C[C@@H]21 (racemic) | -4.66 |
| COC(=O)N1CC[C@@H]2Nc3c(Br)c(C)c(OC)c(C)c3[C@@H]2C1 (racemic) | -4.71 |
| COc1cc(C)c2c(c1)[C@@H]1CN(C(=O)OCc3ccccc3)CC[C@@H]1N2 (racemic) | -5.29 |
| Cc1cc(C)c2c(c1)[C@@H]1CN(C(=O)OCc3ccccc3)CC[C@@H]1N2 (racemic) | -5.36 |
| Cc1ccc2c(c1)[C@H]1CN(C)CC[C@H]1N2 [STOBADINE] | -4.6 |
| COc1ccc2c(c1)[C@@H]1CN(C(=O)OCc3ccccc3)CC[C@@H]1N2 (racemic) | -5.49 |
